Results reported in patent publication US6492330B1, “Antiangiogenic drugs” (National Institute of Immunology, priority 1996, dated 2002).
Non-standard residues stand in square brackets, D forms with d. No end group written: not given here.

Legend:
aortic rings in fibrin = details: 10^−8M octreotide; cited from earlier work
[1] = test system: vascular cells from explants of rat aorta; details: 10^−8M octreotide; cited from earlier work
[2] = test system: human umbelical vein endothelial cells (HUVEC); details: 10^−9M octreotide; cited from earlier work
[3] = test system: endothelial cells ECV.304; assay: Migration assay across 8 μm polycarbonate filter transwell inserts; assay type: cell-based; details: N = 10^−8 M for VIP2, BOM1, SP1, VIP3, SOM2, 10^−7M for VIP1, 10^−9M for SOM1, 24 hours
Description: Polycarbonate filter transwell inserts (24 well size) with 8 μm pores (Nunc, Denmark) were used for the migration assay. ECV304 (10^4 cells/200 ul DMEM containing 0.1% BSA) was added to the upper chamber. The lower chamber contained 600 ul of DMEM with 0.1% BSA. Individual peptides of the composition MuJ-7 at six different concentrations each of N/100, N/10, N, 10N, 100N and 1000N were added directly to the upper well and the plate incubated at 37° C. for 24 hours. The cells migrated to the lower chamber were viewed randomly at five different phase-contrast microscopic fields and the total number of cells counted using Video Pro 32 Image Analysis system. Percent inhibition in migration was determined with reference to the Control. Similarly, […] different concentrations of N/100, N/10, N, 10N, 100N and 1000N of MuJ-7 were added directly to the upper well and the plate incubated at 37° C. for 24 hours. The cells migrated to the lower chamber were counted as described above.
Polycarbonate filter trasnwell inserts (24 well size) with 8 μm pores (Nuno, Denmark) were used for the migration assay. ECV304 (10^4 cells/200 ul DMEM containing 0.1% BSA) was added to the upper chamber. The lower chamber contained 600 ul of DMEM with 0.1% BSA. […] The sequence of each of the peptides added are described above. The cells migrated to the lower chamber were viewed randomly at five different phase-contrast microscopic fields and the total number of cells counted using Video Pro 32 Image Analysis system. Percent inhibition in migration was determined with reference to Control. […]

ECV.304 cells = assay: MTT assay, inhibition of proliferation of endothelial cells ECV.304; assay type: cell-based; details: 72 hours (Table 1)
Description: (§1) 150 μl of medium was added to the wells of a 96-well tissue culture plate (Nunc, Denmark) followed by 30 μl of cell suspension. The plate was left in incubator (37° C., 5% CO2) overnight. Each of the seven peptides of the combination MuJ-7 were added at three molar concentrations of 10^−7M, 10^−8M and 10^−9M. 20 μl of MuJ-7 at three concentrations of N/10, N and 10N was added to marked wells of the 96-well plate. The value of N for each of the individual peptides was 10^−8M for VIP2, BOM1, SP1, VIP3, and SOM2 and 10^−7M for VIP1, and 10^−9M for SOM1. Each concentration was plated in triplicate. 20 μl of medium alone was added to control wells while wells without cells served as blanks. A total volume of 200 μl was ensured in each well and the plate was left in an incubator (37° C., 5% CO2). After 72 hours of incubation an MTT assay was performed and percentage inhibition in proliferation of treated cells was calculated with respect to control cells.
150 μl of medium was added to the wells of a 96-well tissue culture plate (Nunc, Denmark) followed by 30 μl of cell suspension. The plate was left in incubator (37° C., 5% CO2) overnight. Novel peptides shown below were incubated with cells at concentration range of 10^−7 to 10^−9 M (except DT71 at concentration range 10^−8 to 10^−10 M). Each concentration was plated in triplicates. 20 μl of medium alone was added to control wells while wells without cells served as blanks. A total volume of 200 μl was ensured in each well and plate was left in incubator (37° C., 5% CO2). After 72 hours of incubation an MTT assay was performed and percentage inhibition in proliferation of treated cells was calculated with respect to control cells.

ECV304 = assay: Tube-like-structure (TLS) formation on Matrigel; assay type: cell-based; details: N = 10^−8 M for VIP2, BOM1, SP1, VIP3, SOM2, 10^−7M for VIP1, 10^−9M for SOM1, 24 hours
Description: Matrigel (350 ul) was placed into each well of a 24-well culture plate at 4° C. and was allowed to polymerize by incubation at 37° C. for 30 min. ECV304 (1.5×10^4) were seeded on the Matrigel in 500 ul DMEM supplemented with 10% FBS. MuJ-7 at four different concentrations of 0.25×, 0.5×, ×, & 5.0× were added and. the plate incubated at 37° C. for 24 hour. “×” denotes normal concentration of MuJ-7 where molar concentration of individual peptides was 10^−8 M for VIP2, BOM1, SP1, VIP3 and SOM2 and 10^−7 M for VIP1 and 10^−9 M for SOM1. […] Percent inhibition in tube area was determined with reference to untreated cells.
Matrigel (350 ul) was placed into each well of a 24-well culture plate at 4° C. and was allowed to polymerize by incubation at 37° C. for 30 min. ECV304 (1.5×10^4) were seeded on the Matrigel in 500 ul DMEM supplemented with 10% FBS. […] Percent inhibition in tube length was determined with reference to untreated cells.
Matrigel (350 ul) was placed into each well of a 24-well culture plate at 4° C. and was allowed to polymerize by incubation at 37° C. for 30 min. ECV304 (1.5×10^4) were seeded on the Matrigel in 500 ul DMEM supplemented with 10% FBS. Individual peptides of the composition MuJ-7 at three different concentrations each of N/10, N, and 10N were added and the plate incubated at 37° C. for 24 hours. […] Percent inhibition in tube length was determined with reference to Control. Similarly, three different concentrations of N/10, N, and 10N of MuJ-7 were added to the well and the plate incubated at 37° C. for 24 hours. Percent inhibition in tube length was determined with reference to Control as described previously (Table 10).

EaHy.926 = assay: MTT assay, inhibition of proliferation of endothelial cells EaHy.926; assay type: cell-based; details: 72 hours
Description: as §1

VIP-receptor complex = details: n=6; K-A is the dissociation constant of VIP-receptor complex; cited from earlier work

Compound: C[C@@H](O)[C@@H]1NC(=O)[C@H](CCCCN)NC(=O)[C@@H](Cc2c[nH]c3ccccc23)NC(=O)[C@H](Cc2ccccc2)NC(=O)[C@@H](NC(=O)[C@H](N)Cc2ccccc2)CSSC[C@@H](C(=O)N[C@H](CO)[C@@H](C)O)NC1=O [octreotide]
- reduction of sprouting compared with controls (aortic rings in fibrin): 33.2%
- inhibition of proliferation compared with controls [1]: 32.6%
- reduction of mean uptake of 3H-thymidine compared with controls [2]: 37%

Compound: [dR]PKP[dF]Q[dW]F[dW]LL-NH2 [SP1]
- Percent inhibition in migration ([3]; 10N): 92.65%
- Percent inhibition in migration ([3]; 100N): 78.10%
- Percent inhibition in migration ([3]; 1000N): 18.10%
- Percent inhibition in migration ([3]; N/10): 94.10%
- Percent inhibition in migration ([3]; N/100): 13.97%
- Percent inhibition in migration ([3]; N): 90.50%
- Percent Inhibition Proliferation (ECV.304 cells; ECV.304, peptide 10^−7M): 18%
- Percent Inhibition Proliferation (ECV.304 cells; ECV.304, peptide 10^−8M): 24%
- Percent Inhibition Proliferation (ECV.304 cells; ECV.304, peptide 10^−9M): 22%
- Percent inhibition in TLS activity (TLS length) (ECV304; 10N): 3.0%
- Percent inhibition in TLS activity (TLS length) (ECV304; N/10): 14.4%
- Percent inhibition in TLS activity (TLS length) (ECV304; N): 8.9%
- Percent Inhibition Proliferation (EaHy.926; EaHy.926, peptide 10^−7M): 49%
- Percent Inhibition Proliferation (EaHy.926; EaHy.926, peptide 10^−8M): 32%
- Percent Inhibition Proliferation (EaHy.926; EaHy.926, peptide 10^−9M): 37%

Compound: vasoactive intestinal polypeptide [VIP]
- pKa value for VIP-receptor complex (VIP-receptor complex): 8.10+/−0.10
